From US20100056524A1, “Compound” (priority 2008, published 2010)
Counter-ions that a name gives are not always drawn. Like-named read-outs stand apart in the source and are kept apart here.

Columns and labels:
Assay type in all cases: biochemical
ERK2 = target: T1, ERK2 (Homo sapiens, UniProt P28482); test: ERK2 protein kinase assay; settings: for remaining activity at 1 µM: 1 μM compound; for remaining activity at 10 µM: 10 μM compound; for residual kinase activity ERK2: 1 μm compound
T1 construct: All protein kinases were of human origin and encoded full length proteins, unless indicated otherwise; made in house
T1 sequence (P28482 2-360): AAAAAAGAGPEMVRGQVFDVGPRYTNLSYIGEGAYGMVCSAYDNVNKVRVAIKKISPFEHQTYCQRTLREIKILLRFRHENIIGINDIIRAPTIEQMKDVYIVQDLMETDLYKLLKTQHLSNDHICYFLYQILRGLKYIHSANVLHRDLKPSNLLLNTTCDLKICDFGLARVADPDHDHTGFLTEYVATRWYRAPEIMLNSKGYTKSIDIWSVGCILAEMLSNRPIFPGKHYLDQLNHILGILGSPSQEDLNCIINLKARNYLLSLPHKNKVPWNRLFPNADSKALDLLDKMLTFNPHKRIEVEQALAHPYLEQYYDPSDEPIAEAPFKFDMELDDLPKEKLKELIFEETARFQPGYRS
Description: (§1) All protein kinases were of human origin and encoded full length proteins, unless indicated otherwise. They were either expressed as glutathione S-transferase (GST) fusion proteins in Escherichia Coli or as hexahistidine (His6)-tagged proteins in insect Sf21 cells. GST fusion proteins were purified by affinity chromatography on glutathione-Sepharose, and His6-tagged proteins on nickel/nitriloacetate-agarose. The procedures for expressing some of the protein kinases used herein have been detailed previously.^8,9 The following sections outline the DNA vectors synthesised and the procedures used to express and purifying protein kinases that have not been reported previously.
(§2) All assays (25.5 μl) were carried out at room temperature (21° C.) and were linear with respect to time and enzyme concentration under the conditions used. Assays were performed for 30 min using Multidrop Micro reagent dispensers (Thermo Electron Corporation, Waltham, Mass. 02454, USA) in a 96-well format. The concentration of magnesium acetate in the assays was 10 mM and the [γ-33P] ATP (800 cpm/pmol) was used at 5, 20 or 50 μM as indicated, in order to be at or below the Km for ATP for each enzyme. Protein kinases assayed at 5 μM ATP were: —ERK1, ERK8, PKBα, MARK3, Aurora C. Protein kinases assayed at 20 μM ATP were: —JNK1, PDK1, CHK1, CHK2, CDK2 and Aurora B. Protein kinases assayed at 50 μM ATP were: —MNK2, IKKepsilon and TBK1.
(§3) The assays were initiated with MgATP, stopped by addition of 5 μl of 0.5 M orthophosphoric acid and spotted on to P81 filterplates using a unifilter harvester (PerkinElmer, Boston, Mass. 02118, USA). The IC50 values of inhibitors were determined after carrying out assays at 10 different concentrations of each compound.
(§4) Unless stated otherwise, enzymes were diluted in 50 mM Tris/HCl pH 7.5, 0.1 mM EGTA, 1 mg/ml BSA, 0.1% (v/v) 2-mercaptoethanol and assayed in 50 mM Tris/HCl pH 7.5, 0.1 mM EGTA, 0.1% (v/v) 2-mercaptoethanol.

p38s MAPK = target: T2, p38s MAPK (Homo sapiens, UniProt O15264); test: p38s MAPK protein kinase assay; settings: for remaining activity at 1 µM: 1 μM compound; for remaining activity at 10 µM: 10 μM compound; for residual kinase activity p38s MAPK: 1 μm compound
T2 construct: All protein kinases were of human origin and encoded full length proteins, unless indicated otherwise; made in house
T2 sequence (O15264 1-365): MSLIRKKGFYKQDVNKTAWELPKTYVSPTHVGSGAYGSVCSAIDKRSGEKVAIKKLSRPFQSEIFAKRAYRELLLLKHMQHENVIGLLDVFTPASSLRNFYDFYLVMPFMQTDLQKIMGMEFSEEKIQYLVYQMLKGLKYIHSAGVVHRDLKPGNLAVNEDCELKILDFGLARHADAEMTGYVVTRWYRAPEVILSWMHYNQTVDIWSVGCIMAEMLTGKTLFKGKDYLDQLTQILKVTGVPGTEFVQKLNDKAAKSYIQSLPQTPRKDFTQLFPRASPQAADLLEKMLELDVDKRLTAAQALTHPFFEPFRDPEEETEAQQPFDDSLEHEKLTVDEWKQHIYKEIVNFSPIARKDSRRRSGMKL
Description: as §1, §2, §3, §4

DYRK2 = target: T3, DYRK2 (Homo sapiens, UniProt Q92630); test: DYRK2 protein kinase assay; settings: for remaining activity at 1 µM: 1 μM compound; for remaining activity at 10 µM: 10 μM compound; for residual kinase activity DYRK2: 1 μm compound
T3 construct: All protein kinases were of human origin and encoded full length proteins, unless indicated otherwise; made in house
T3 sequence (Q92630 1-601): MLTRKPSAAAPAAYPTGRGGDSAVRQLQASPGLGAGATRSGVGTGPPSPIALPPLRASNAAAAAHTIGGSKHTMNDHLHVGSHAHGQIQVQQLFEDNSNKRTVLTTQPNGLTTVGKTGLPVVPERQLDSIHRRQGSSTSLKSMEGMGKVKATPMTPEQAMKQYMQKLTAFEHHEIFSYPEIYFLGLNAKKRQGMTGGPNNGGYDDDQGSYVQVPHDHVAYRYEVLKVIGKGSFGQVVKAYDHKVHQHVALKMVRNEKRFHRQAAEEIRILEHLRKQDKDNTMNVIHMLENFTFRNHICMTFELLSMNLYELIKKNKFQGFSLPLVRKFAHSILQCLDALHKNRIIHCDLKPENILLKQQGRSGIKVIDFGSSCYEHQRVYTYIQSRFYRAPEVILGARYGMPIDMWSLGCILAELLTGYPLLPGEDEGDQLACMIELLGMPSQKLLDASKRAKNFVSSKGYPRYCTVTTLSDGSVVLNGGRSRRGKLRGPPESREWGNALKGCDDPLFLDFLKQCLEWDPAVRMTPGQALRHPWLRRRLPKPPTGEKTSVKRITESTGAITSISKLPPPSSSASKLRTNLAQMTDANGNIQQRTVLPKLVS
Description: as §1, §2, §3, §4

[1] = ERK2, read-out: residual kinase activity
[2] = p38s MAPK, read-out: residual kinase activity
[3] = DYRK2, read-out: residual kinase activity
[4] = read-out: residual kinase activity ERK2
[5] = read-out: residual kinase activity p38s MAPK
[6] = read-out: residual kinase activity DYRK2

| Structure (SMILES) | remaining activity at 1 µM (ERK2; [1]) [%] | remaining activity at 10 µM (ERK2; [1]) [%] | remaining activity at 1 µM (p38s MAPK; [2]) [%] | remaining activity at 10 µM (p38s MAPK; [2]) [%] | remaining activity at 1 µM (DYRK2; [3]) [%] | remaining activity at 10 µM (DYRK2; [3]) [%] | remaining activity at 10 µM (ERK2; [4]) [%] | residual kinase activity ERK2 (ERK2) [%] | remaining activity at 10 µM (p38s MAPK; [5]) [%] | residual kinase activity p38s MAPK (p38s MAPK) [%] | remaining activity at 10 µM (DYRK2; [6]) [%] | residual kinase activity DYRK2 (DYRK2) [%] |
| --- | --- | --- | --- | --- | --- | --- | --- | --- | --- | --- | --- | --- |
| O=C(NCCCNc1nc(Nc2cccc(N3CCCC3=O)c2)ncc1C1CC1)c1cccs1 [Example 47, Thiophene-2-carboxylic acid (3-{5-cyclopropyl-2-[3-(2-oxo-pyrrolidin-1-yl)-phenylamino]-pyrimidin-4-ylamino}-propyl)-amide. Hydrochloride salt] | 90 | 66 | 84 | 84 | 81 | 63 | – | – | – | – | – | – |
| O=C(NCCCNc1nc(Nc2cccnc2)ncc1C1CC1)c1cccs1 [Example 50, Thiophene-2-carboxylic acid {3-[5-cyclopropyl-2-(pyridin-3-ylamino)-pyrimidin-4-ylamino]-propyl}-amide] | 106 | 62 | 79 | 67 | 76 | 38 | – | – | – | – | – | – |
| O=C(NCCCNc1nc(Nc2cccc(F)c2)ncc1Br)C1CCC1 [Compound A, cyclobutanecarboxylic acid {3-[5-bromo-2-(3-fluoro-phenylamino)-pyrimidin-4-ylamino]-propyl}-amide, reference compound] | – | – | – | – | – | – | 10 | 49 | 15 | 55 | 6 | 36 |
| O=C(NCCCNc1nc(Nc2cccc(F)c2)ncc1C1CC1)C1CCC1 [Example 23, Cyclobutanecarboxylic acid {3-[5-cyclopropyl-2-(3-fluoro-phenylamino)-pyrimidin-4-ylamino]-propyl}-amide] | 107 | 108 | 77 | 72 | 67 | 50 | 108 | 107 | 72 | 77 | 50 | 67 |
